Assay results taken from PubChem BioAssay (NCI).
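Test compounds were applied to cells in 96-well plates for 48 hours at 5 doses. TGI marks complete inhibition of growth.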

Legend:
Experiment in all cases: NCI tumour cell line growth inhibition, 48 h
[1] = test system: SW-620 colon
[2] = test system: NCI-H226 lung
[3] = test system: M19-MEL melanoma
[4] = test system: IGROV1 ovarian
[5] = test system: U251 CNS
[6] = test system: CAKI-1 renal
[7] = test system: ACHN renal
[8] = test system: RXF 393 renal
[9] = test system: NCI-H460 lung
[10] = test system: OVCAR-3 ovarian
[11] = test system: SF-295 CNS
[12] = test system: DLD-1 colon
[13] = test system: OVCAR-4 ovarian
[14] = test system: NCI-H23 lung
[15] = test system: SK-OV-3 ovarian
[16] = test system: UO-31 renal
[17] = test system: MALME-3M melanoma
[18] = test system: HT29 colon
[19] = test system: A549 NSCLC
[20] = test system: SNB-19 CNS
[21] = test system: SK-MEL-28 melanoma
[22] = test system: TK-10 renal
[23] = test system: SN12C renal
[24] = test system: KM20L2 colon
[25] = test system: SF-539 CNS
[26] = test system: NCI-H522 lung
[27] = test system: SF-268 CNS
[28] = test system: SNB-78 CNS
[29] = test system: UACC-257 melanoma
[30] = test system: LXFL 529 NSCLC
[31] = test system: EKVX NSCLC
[32] = test system: SNB-75 CNS
[33] = test system: UACC-62 melanoma
[34] = test system: K-562 leukemia
[35] = test system: COLO 205 colon
[36] = test system: HOP-18 NSCLC
[37] = test system: HCC-2998 colon
[38] = test system: M14 melanoma
[39] = test system: RPMI-8226 leukemia
[40] = test system: HOP-62 NSCLC
[41] = test system: DMS 114 small cell lung
[42] = test system: HCT-15 colon
[43] = test system: OVCAR-8 ovarian
[44] = test system: 786-0 renal
[45] = test system: SK-MEL-5 melanoma
[46] = test system: DMS 273 small cell lung
[47] = test system: CCRF-CEM leukemia
[48] = test system: XF 498 CNS
[49] = test system: OVCAR-5 ovarian
[50] = test system: HCT-116 colon
[51] = test system: SK-MEL-2 melanoma
[52] = test system: MOLT-4 leukemia
[53] = test system: LOX IMVI melanoma
[54] = test system: HL-60(TB) leukemia
[55] = test system: PC-3 prostate
[56] = test system: HOP-92 NSCLC
[57] = test system: T-47D breast
[58] = test system: KM12 colon
[59] = test system: MDA-MB-435
[60] = test system: A498 renal
[61] = test system: MDA-MB-231 breast
[62] = test system: DU-145 prostate
[63] = test system: SR leukemia
[64] = test system: MDA-N
[65] = test system: HS 578T breast
[66] = test system: BT-549 breast

Q: With O=C(O)[C@@H](NS(=O)(=O)c1ccc(F)cc1)c1ccccc1 as the compound, how does the TGI [1] read?
A: > 100000 nM

Q: What about the TGI [2] of the same compound?
A: > 100000 nM

Q: What about the TGI [3] of the same compound?
A: > 100 µM

Q: What about the TGI [4] of the same compound?
A: > 100000 nM

Q: What about the TGI [5] of the same compound?
A: > 100000 nM

Q: And the TGI [6]?
A: > 100000 nM

Q: And the TGI [7]?
A: > 100000 nM

Q: And the TGI [8]?
A: > 100000 nM

Q: What about the TGI [9] of the same compound?
A: > 100000 nM

Q: And the TGI [10]?
A: > 100000 nM

Q: And the TGI [11]?
A: > 100000 nM

Q: And the TGI [12]?
A: > 100000 nM

Q: What about the TGI [13] of the same compound?
A: > 100000 nM

Q: And the TGI [14]?
A: > 100000 nM

Q: What about the TGI [15] of the same compound?
A: > 100000 nM

Q: And the TGI [16]?
A: > 100000 nM

Q: What about the TGI [17] of the same compound?
A: > 100000 nM

Q: What about the TGI [18] of the same compound?
A: > 100000 nM

Q: And the TGI [19]?
A: > 100000 nM

Q: And the TGI [20]?
A: > 100000 nM

Q: And the TGI [21]?
A: > 100000 nM

Q: And the TGI [22]?
A: > 100000 nM

Q: What about the TGI [23] of the same compound?
A: > 100000 nM

Q: And the TGI [24]?
A: > 100000 nM

Q: And the TGI [25]?
A: > 100000 nM

Q: And the TGI [26]?
A: > 100000 nM

Q: What about the TGI [27] of the same compound?
A: > 100000 nM

Q: What about the TGI [28] of the same compound?
A: > 100000 nM

Q: And the TGI [29]?
A: > 100000 nM

Q: And the TGI [30]?
A: > 100000 nM

Q: What about the TGI [31] of the same compound?
A: > 100000 nM

Q: And the TGI [32]?
A: > 100000 nM

Q: And the TGI [33]?
A: > 100000 nM

Q: What about the TGI [34] of the same compound?
A: > 100 µM

Q: And the TGI [35]?
A: > 100000 nM

Q: What about the TGI [36] of the same compound?
A: > 100000 nM

Q: And the TGI [37]?
A: > 100000 nM

Q: And the TGI [38]?
A: > 100000 nM

Q: What about the TGI [39] of the same compound?
A: > 100000 nM

Q: And the TGI [40]?
A: > 100000 nM

Q: What about the TGI [41] of the same compound?
A: > 100000 nM

Q: What about the TGI [42] of the same compound?
A: > 100000 nM

Q: What about the TGI [43] of the same compound?
A: > 100000 nM

Q: And the TGI [44]?
A: > 100000 nM

Q: And the TGI [45]?
A: > 100000 nM

Q: And the TGI [46]?
A: > 100000 nM

Q: And the TGI [47]?
A: > 100 µM

Q: And the TGI [48]?
A: > 100000 nM

Q: What about the TGI [49] of the same compound?
A: > 100000 nM

Q: And the TGI [50]?
A: > 100 µM

Q: And the TGI [51]?
A: > 100000 nM

Q: And the TGI [52]?
A: > 100000 nM

Q: And the TGI [53]?
A: > 100000 nM

Q: Which TGI [1] does the source give for COc1cccc2c1C(=O)c1c(O)c3c(c(O)c1C2=O)C[C@@](O)(C(=O)CO)C[C@@H]3OC1CC(N(C)C)C(O)C(C)O1 (stereo partly drawn) here?
A: 1380 nM

Q: And the TGI [54]?
A: 20.6 nM

Q: And the TGI [2]?
A: 81.4 nM

Q: And the TGI [4]?
A: 183 nM

Q: What about the TGI [5] of the same compound?
A: 2750 nM

Q: What about the TGI [55] of the same compound?
A: 102 nM

Q: And the TGI [6]?
A: 73.3 nM

Q: And the TGI [7]?
A: 96.6 nM

Q: What about the TGI [8] of the same compound?
A: 82.7 nM

Q: And the TGI [9]?
A: 16.7 nM

Q: What about the TGI [10] of the same compound?
A: 858 nM

Q: What about the TGI [11] of the same compound?
A: 173 nM

Q: And the TGI [12]?
A: 176 nM

Q: And the TGI [13]?
A: 266 nM

Q: And the TGI [56]?
A: 312 nM

Q: What about the TGI [57] of the same compound?
A: 96.9 nM

Q: And the TGI [14]?
A: 94.6 nM

Q: What about the TGI [15] of the same compound?
A: 1760 nM

Q: And the TGI [16]?
A: 427 nM

Q: And the TGI [17]?
A: 57.6 nM

Q: And the TGI [18]?
A: 1820 nM

Q: What about the TGI [58] of the same compound?
A: 338 nM

Q: And the TGI [19]?
A: 785 nM

Q: And the TGI [20]?
A: 649 nM

Q: What about the TGI [21] of the same compound?
A: 168 nM

Q: What about the TGI [22] of the same compound?
A: 2280 nM

Q: And the TGI [23]?
A: 1140 nM

Q: And the TGI [24]?
A: 591 nM

Q: What about the TGI [25] of the same compound?
A: 121 nM

Q: What about the TGI [26] of the same compound?
A: 92.2 nM

Q: And the TGI [27]?
A: 360 nM

Q: What about the TGI [28] of the same compound?
A: 645 nM

Q: What about the TGI [29] of the same compound?
A: 153 nM

Q: What about the TGI [59] of the same compound?
A: 165 nM

Q: And the TGI [60]?
A: < 19.5 nM

Q: What about the TGI [30] of the same compound?
A: 1600 nM

Q: What about the TGI [31] of the same compound?
A: 413 nM

Q: What about the TGI [32] of the same compound?
A: 138 nM

Q: What about the TGI [33] of the same compound?
A: 26.1 nM

Q: And the TGI [61]?
A: 615 nM

Q: And the TGI [34]?
A: 9.41 µM

Q: What about the TGI [35] of the same compound?
A: 18.6 nM

Q: What about the TGI [62] of the same compound?
A: 803 nM

Q: And the TGI [36]?
A: 2950 nM

Q: What about the TGI [37] of the same compound?
A: 258 nM

Q: And the TGI [63]?
A: 18.8 nM

Q: And the TGI [38]?
A: 104 nM

Q: And the TGI [64]?
A: 83.3 nM

Q: What about the TGI [39] of the same compound?
A: 825 nM

Q: What about the TGI [40] of the same compound?
A: 272 nM

Q: What about the TGI [65] of the same compound?
A: 34.4 nM

Q: And the TGI [41]?
A: 204 nM

Q: And the TGI [42]?
A: 765 nM

Q: What about the TGI [43] of the same compound?
A: 1520 nM

Q: What about the TGI [44] of the same compound?
A: 1510 nM

Q: And the TGI [66]?
A: 556 nM

Q: And the TGI [45]?
A: 45.5 nM

Q: What about the TGI [46] of the same compound?
A: 158 nM

Q: And the TGI [47]?
A: 7.59 µM

Q: What about the TGI [48] of the same compound?
A: 55.3 nM

Q: And the TGI [49]?
A: 352 nM

Q: And the TGI [50]?
A: 12.3 µM

Q: And the TGI [51]?
A: 88.5 nM

Q: And the TGI [52]?
A: 299 nM

Q: And the TGI [53]?
A: 10.2 nM
